According to patent US8202886B2, “Small molecule E2F inhibitor” (H. Lee Moffitt Cancer Center and Research Institute, Inc., priority 2008, dated 2012):
Like-named read-outs stand apart in the source and are kept apart here.

Tests used:
MCF7 cells = assay: RNase protection assay, MCF7; type: cell-based, human
Procedure: (§1) The indicated breast cancer lines were treated with 40 micromolar the therapeutic compound and subjected RNAse protection assay 24 hrs later using the indicated probes.
(§2) An RNase protection assay was performed to determine if downregulation of the Rb family members at the level of mRNA could account for the downregulation of the proteins. Two breast cancer cell lines were examined at 0, 3, 6, 9, 18 and 24 hr following the therapeutic compound treatment (FIG. 21).

H460 = assay: Western blots of treated H460 cells; type: cell-based
Procedure: (§3) In order to further examine the mechanism of action of the therapeutic compound four lung cancer cell lines were treated with various concentrations of drug and western blots performed on cell extracts after 24 hr.

H1299 = assay: Western blots of treated H1299 cells; type: cell-based
Procedure: as §3

E2F4 [1] = molecular target: T1, E2F4 (Homo sapiens, UniProt Q16254); assay: Whole-membrane E2F4 western for cleavage products; type: cell-based; design: endogenous in cells; conditions: 40 uM
Target sequence in this assay (Q16254 whole entry): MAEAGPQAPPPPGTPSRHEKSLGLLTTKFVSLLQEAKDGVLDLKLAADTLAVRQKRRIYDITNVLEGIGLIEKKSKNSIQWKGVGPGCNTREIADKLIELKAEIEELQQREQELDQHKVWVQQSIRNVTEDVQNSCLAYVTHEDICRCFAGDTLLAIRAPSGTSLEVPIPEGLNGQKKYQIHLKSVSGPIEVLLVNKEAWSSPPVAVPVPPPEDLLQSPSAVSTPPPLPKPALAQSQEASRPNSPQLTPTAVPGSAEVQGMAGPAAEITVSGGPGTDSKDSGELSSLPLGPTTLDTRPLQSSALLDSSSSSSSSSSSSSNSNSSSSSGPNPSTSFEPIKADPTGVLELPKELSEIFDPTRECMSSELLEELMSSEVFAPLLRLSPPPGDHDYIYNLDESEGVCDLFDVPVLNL
Procedure: The indicated cell lines were treated with 40 micromolar the therapeutic compound and subjected to western blotting 24 hrs later. In this case, the entire lanes were subjected to western blot with an E2F4 antibody in order to detect potential immunoreactive truncation products.
For this experiment cells were treated with 40 uM the therapeutic compound and were subjected to western blotting. However, rather than cut the western membrane into three pieces (to probe simultaneously for three proteins of different sizes) the entire membrane was used to reveal smaller immunoreactive bands.

A375 = assay: Apo-BrdU TUNEL apoptosis assay, A375; type: cell-based, human; conditions: 40-μM, 24-hrs
Excerpt: (§4) To determine if treatment with the therapeutic compound contributes to apoptosis, Cells were detached from culture plates by trypsin treatment, washed twice with PBS, and fixed in 70% ethanol. Fixed cells were washed twice with PBS and treated with RNase A and propidium iodide (PI). PI staining was examined using a Becton-Dickinson FACScan instrument and Cell Quest software. TUNEL assay for apoptosis utilized a Pharmingen APO-BRDU Kit. MTS (3-(4,5-dimethylthiazol-2-yl)-5-(3-carboxymethoxyphenyl)-2-(4-sulfophenyl)-2H-tetrazolium, inner salt) assays were conducted using a CellTiter 96® AQueous One Cell Proliferation Assay Kit (Promega).
(§5) A375, MDA-MB-231 (231), MCF-7 and human foreskin fibroblasts (HFF) cells were treated with 40-μM of the therapeutic compound for 24-hrs and subjected to a FACS based terminal deoxynucleotidyl transferase (TUNEL) assay (Apo-BrdU Kit from BD Pharmingen).

E2F4 [2] = molecular target: T1, E2F4; assay: E2F4 DNA-binding EMSA on whole cell extracts of treated A375 cells; type: cell-based; conditions: for effect on E2F4 DNA-binding activity: 9-hrs
Procedure: Whole cell extracts of treated cells were prepared and the DNA-binding activity of E2F4 measured by EMSA.
PhosphoImager EMSA signals from four independent experiments were quantified using ImageQuant and the results are graphed in FIG. 10B. The apparent IC50 (drug concentration required to reduce total E2F4 DNA-binding activity by 50% of untreated cells was calculated using the Statistical Analysis System (Proc Probit)).
To determine the activity of the therapeutic compound over time, A375 cells were treated with 40-μM of compound and examined at 0-, 3-, 6-, 9-, 12-, 18- and 24-hrs by EMSA and western (FIG. 11A).
Quantitative EMSA assays were performed in triplicate.
Target sequence in this assay (Q16254 2-413 limits assumed): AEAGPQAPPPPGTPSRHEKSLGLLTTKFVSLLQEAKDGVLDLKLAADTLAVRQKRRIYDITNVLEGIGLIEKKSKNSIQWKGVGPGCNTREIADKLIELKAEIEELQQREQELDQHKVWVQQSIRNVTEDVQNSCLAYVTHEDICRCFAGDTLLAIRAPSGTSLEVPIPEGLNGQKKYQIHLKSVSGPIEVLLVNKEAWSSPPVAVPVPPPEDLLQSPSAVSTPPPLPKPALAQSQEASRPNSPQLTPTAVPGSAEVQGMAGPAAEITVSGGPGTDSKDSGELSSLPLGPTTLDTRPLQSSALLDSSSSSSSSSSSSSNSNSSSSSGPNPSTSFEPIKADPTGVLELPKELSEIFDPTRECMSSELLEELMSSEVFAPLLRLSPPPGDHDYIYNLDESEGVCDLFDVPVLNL
Target sequence in this assay (Q14186 whole entry partner): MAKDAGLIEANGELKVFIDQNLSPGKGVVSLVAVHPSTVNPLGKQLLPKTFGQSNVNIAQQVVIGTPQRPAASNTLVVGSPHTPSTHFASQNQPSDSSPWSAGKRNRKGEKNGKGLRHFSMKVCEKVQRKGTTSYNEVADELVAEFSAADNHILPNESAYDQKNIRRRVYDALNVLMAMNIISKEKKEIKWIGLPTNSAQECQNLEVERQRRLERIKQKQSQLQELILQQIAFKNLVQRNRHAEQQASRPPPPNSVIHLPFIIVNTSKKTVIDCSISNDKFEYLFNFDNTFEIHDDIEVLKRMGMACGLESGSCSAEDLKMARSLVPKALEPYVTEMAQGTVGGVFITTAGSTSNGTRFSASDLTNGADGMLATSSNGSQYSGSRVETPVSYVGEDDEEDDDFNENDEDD

H292 = assay: Western blots of treated H292 cells; type: cell-based
Procedure: as §3

8226-s = assay: MTS viability assay, 8226-s; type: cell-based; conditions: Homo sapiens; 8226-s parental
Procedure: (§6) Cells were collected 24 hours post drug exposure and extracts subjected to western blotting using antibodies to the indicated proteins. Cleavage of PARP indicates apoptosis.
(§7) To examine its effect on a range of commonly studied cell lines, the inventors utilized standard MTS assays to quantify cell viability following the therapeutic compound treatment. Cytotoxicity was determined using MTS assays, which were conducted using a CellTiter 96® AQueous One Cell Proliferation Assay Kit (Promega) following the published protocol. Cells in 0.1 ml volume were plated in triplicate into 96-well plates, 1×10^4 cells/well. the therapeutic compound was added and after 24 hours of incubation at 37° C., 20 μl of MTS dye was added to each well. Plates were read at 490 nm following 4 hrs MTS reaction time. The concentration of drug which produced a 50% inhibition of growth (IC50) was calculated from linear regression analysis of the linear portion of the growth curves.

A375 cells [3] = assay: Western blots of treated A375 cells
Procedure: Actin served as a loading control in these experiments and in those that follow.
To further examine the timing of the therapeutic compound-induced apoptosis, A375 cells were treated with 40-μM the therapeutic compound, harvested and fixed at various time periods.
To compare the mechanism of the therapeutic compound-induced apoptosis with that of several standard DNA damaging drugs, A375 cells were treated for 24-hrs with 40-μM the therapeutic compound, 10 μM cisplatin, 10 nM doxorubicin, 10 μM VP16 (etoposide) or with two-drug combinations.
Western blots utilized 50 μg of whole cell extract per lane as previously described. […] Detection of proteins was accomplished using horseradish-peroxidase-conjugated secondary antibodies and enhanced chemiluminescence (ECL) purchased from Amersham.

breast cancer cell lines = assay: Western blots of Rb family members in breast cancer cell lines; type: cell-based; conditions: 40 micromolar, 24 hrs
8226-MR20 = assay: MTS viability assay, 8226-MR20; type: cell-based; conditions: Homo sapiens
Procedure: as §6, §7

[4] = tested on: 8226-s, 8226-dox40 and 8226-MR20; assay: PARP cleavage western in drug sensitive and resistant 8226 lines; type: cell-based, human; conditions: 24 hours; 10 μM cisplatin or 10, 20 or 40 μM HLM006474
Procedure: as §6

MCF-7 = assay: Apo-BrdU TUNEL apoptosis assay, MCF-7; type: cell-based, human; conditions: 40-μM, 24-hrs
Excerpt: as §4, §5

lung cancer cell lines = assay: CT Blue Viability Assay, drug combinations; type: cell-based; conditions: combination with taxol
Procedure: The indicated lung cancer cell lines were exposed to taxol, cisplatin, or gemacitabine alone, the therapeutic compound alone, or a combination as indicated. These experiments and analysis were performed in the Experimental Therapeutics Core using the CT Blue Viability Assay.

A375 cells [5] = assay: Propidium iodide flow cytometry, sub-G1 DNA content; type: cell-based, human; conditions: 40-μM
Excerpt: as §4

NCI60 cell lines = assay: NCI60 drug screen; type: cell-based; conditions: NCI standard concentration
Excerpt: FIG. 16: HLM006474 was submitted to the National Cancer Institutes Developmental Therapeutic Program NCI60 Drug Screening Program. […] Results are reported as mean growth percent less growth percent.
The therapeutic compound was submitted to the NCI60 drug screen.

231 cells = assay: RNase protection assay, 231; type: cell-based, human
Procedure: as §1, §2

8226-dox40 = assay: MTS viability assay, 8226-dox40; type: cell-based; conditions: Homo sapiens
Procedure: as §6, §7

CCOc1ccc(C(Nc2ccccn2)c2ccc3ccc(C)nc3c2O)cc1C (stereo not shown) [HLM006474]
Rb at the mRNA level (MCF7 cells; MCF7): no significant change | p21 mRNA (MCF7 cells; MCF7): upregulated | mRNA for p107 (MCF7 cells; MCF7, 0-24 hr): repressed | Bcl-2 or Mcl-2 (western) (H460; H460, 40-μM): did not show changes | sensitivity (downregulation of E2F1 and E2F4, PARP cleavage) (H460; H460, various concentrations, 24 hr): very sensitive | Bcl-2 (western) (H1299; H1299, 40-μM): significant downregulation | Mcl-1 (western) (H1299; H1299, 40-μM): no change | sensitivity (downregulation of E2F1 and E2F4, PARP cleavage) (H1299; H1299, various concentrations, 24 hr): very sensitive | E2F4 immunoreactive truncation product (E2F4 [1]): appearance of a 40 kD band | apoptosis (TUNEL) (A375): dramatic induction of apoptosis | effect on E2F4 DNA-binding activity (E2F4 [2]; 10 and 20-μM): limited effect | reduction of E2F4 activity (E2F4 [2]; 40-μM drug, expected from dose response): 50-75% | effect on E2F4 DNA-binding activity (E2F4 [2]; 40-μM): inhibition is clearly apparent | IC50 (E2F4 [2]; A375 cells treated 9-hrs, EMSA, Proc Probit, read-out: IC50 (drug concentration required to reduce total E2F4 DNA-binding activity by 50% of untreated cells)): 29.8 µM | IC50 (E2F4 [2]; as restated for the NCI60 screen, read-out: known IC50): 30 µM | time at which inhibition of E2F4 DNA-binding activity became apparent (E2F4 [2]; single 40-μM dose): 9 h | Mcl-1 (western) (H292; H292, 40-μM): downregulation of Mcl-1 | sensitivity (downregulation of E2F1 and E2F4, PARP cleavage) (H292; H292, various concentrations, 24 hr): limited sensitivity | IC50 (8226-s): 36 ± 6 µM | expression of E2F4 or E2F1 (western) (A375 cells [3]; 9-hrs of treatment): does not significantly affect | Mcl-1 (western) (A375 cells [3]; 24-hrs, 40-μM): may slightly repress Mcl-1 | PARP cleavage (western) (A375 cells [3]; 24-hrs, 40-μM): potent inducer of PARP cleavage | time at which PARP cleavage indicates significant apoptosis (A375 cells [3]; 40-μM): ≤ 12 h | time at which decrease in total E2F4 protein became apparent (A375 cells [3]; 40-μM): up to 24 hrs | Rb and p107 proteins (western) (breast cancer cell lines): dramatically down regulated | IC50 (8226-MR20): 46 ± 6 µM | PARP cleavage (apoptosis) in sensitive versus resistant lines [4]: very similar | apoptosis (TUNEL) (MCF-7): did not induce an obvious increase in apoptosis | synergy with taxol (lung cancer cell lines): synergizes significantly | time at which increase in sub-G1 DNA content begins (A375 cells [5]): approximately 9 hrs | growth inhibition in NCI60 cell lines (NCI60 cell lines): significantly growth inhibited | Rb at the mRNA level (231 cells): no significant change | p21 mRNA (231 cells): upregulated | IC50 (8226-dox40): 31 ± 4 µM
